Here are results for 34 molecules from patent US20130142831A1, “COMPOUNDS FOR INFLAMMATION AND IMMUNE-RELATED USES” (Synta Pharmaceuticals Corp., priority 2004, published 2013).

In general, IC50 refers to the midpoint of a concentration-inhibition curve.

This experiment relates to IL-2 production. The experiment can be described thus: Inhibition of IL-2 production in PHA-activated Jurkat cells. Type of experiment: cell-based. The settings on record: Homo sapiens, PHA 2.5 μg/mL, 20 hours. The method, then:
Jurkat cells were placed in a 96 well plate (0.5 million cells per well in 1% FBS medium) then test compounds of this invention were added at different concentrations. After 10 minutes, the cells were activated with PHA (final concentration 2.5 μg/mL) and incubated for 20 hours at 37° C. under CO2. The final volume was 200 μL. Following incubation, the cells were centrifuged and the supernatants collected and stored at −70° C. prior to assaying for IL-2 production. A commercial kit (IL-2 Eli-pair, Diaclone Research, Besancon, France) was used to detect production of IL-2, from which dose response curves were obtained. The IC50 value was calculated as the concentration at which. 50% of maximum IL-2 production after stimulation was inhibited versus a non-stimulation control.

On to `CCCCc1ccc(C(=O)Nc2ccc(-n3c(C(F)(F)F)nc4cc(OC)ccc43)cc2)cc1` [Compound 66, 4-Butyl-N-[4-(2-trifluoromethyl-5-methoxy-benzoimidazol-1-yl)-phenyl]-benzamide], for which the IC50 (bins given in nM) was 100 to 500 nM.
Where the note is “bins given with μM limit”, `CC(C)(C)c1cnc(-c2ccc3c(c2)nc(C(F)(F)F)n3-c2ccc(NC(=O)c3cc(F)ccc3F)cc2)o1` [Compound 67, 2,5-Difluoro-N-{4-[2-trifluoromethyl-5-(5-tert-butyl-oxazol-2-yl)-benzoimidazol-1-yl]-phenyl}-benzamide] gave an IC50 greater than 1000 nM.
On the same count and under the same terms, the result for `CC(C)(C)c1cnc(-c2ccc3c(c2)nc(C(F)(F)F)n3-c2ccc(NC(=O)c3cccc(F)c3F)cc2)o1` [Compound 68, 2,3-Difluoro-N-{4-[2-trifluoromethyl-5-(5-tert-butyl-oxazol-2-yl)-benzoimidazol-1-yl]-phenyl}-benzamide] reads greater than 1000 nM.
On to `CC(C)(C)c1cnc(-c2ccc3c(c2)nc(C(F)(F)F)n3-c2ccc(NC(=O)c3ccco3)cc2)o1` [Compound 69, Furan-2-carboxylic acid (N-{4-[2-trifluoromethyl-5-(5-tert-butyl-oxazol-2-yl)-benzoimidazol-1-yl]-phenyl}) amide], for which the IC50 (bins given in nM) lay in the range of 100 to 500 nM.
The same measure, in the same setting: the figure for `O=C(Nc1ccc(-c2c(C(F)(F)F)nc3ccccn23)cc1)c1cccc(F)c1F` [Compound 70, 2,3-Difluoro-N-[4-(2-trifluoromethyl-imidazo[1,2-a]pyrid-3-yl)-phenyl]-benzamide] is 100 to 500 nM; for `COc1ccc2c(c1)nc(C(F)(F)F)n2-c1ccc(NC(=O)c2cc(F)c(F)c(F)c2F)cc1` [Compound 71, 2,3,4,5-Tetrafluoro-N-[4-(2-trifluoromethyl-5-methoxy-benzoimidazol-1-yl)-phenyl]-benzamide] it is less than 100 nM.
For the molecule `COc1ccc2c(c1)nc(C(F)(F)F)n2-c1ccc(NC(=O)c2ccc(-c3ccccc3)cc2)cc1` [Compound 72, 4-Phenyl-N-[4-(2-trifluoromethyl-5-methoxy-benzoimidazol-1-yl)-phenyl]-benzamide], the IC50 (bins given in nM) was in the range of 100 to 500 nM.
As to `COc1ccc2c(c1)nc(C(F)(F)F)n2-c1ccc(NC(=O)c2ccc(I)cc2)cc1` [Compound 73, 4-Iodo-N-[4-(2-trifluoromethyl-5-methoxy-benzoimidazol-1-yl)-phenyl]-benzamide], the IC50 (bins given in nM) is 100 to 500 nM.
For the molecule `COc1ccc2c(c1)nc(C(F)(F)F)n2-c1ccc(NC(=O)c2ccc3ccccc3c2)cc1` [Compound 74, Naphthalene-2-carboxylic acid {N-[4-(2-trifluoromethyl-5-methoxy-benzoimidazol-1-yl)-phenyl]} amide], the half-maximal inhibitory concentration (IC50) (bins given in nM) was 100 to 500 nM.
Regarding `COc1ccc2c(c1)nc(C(F)(F)F)n2-c1ccc(NC(=O)c2ccc(C)cc2)cc1` [Compound 76, 4-Methyl-N-[4-(2-trifluoromethyl-5-methoxy-benzoimidazol-1-yl)-phenyl]-benzamide], under “bins given in nM”, the 50% inhibitory concentration (IC50) is 100 to 500 nM.
For the molecule `COc1ccc2c(c1)nc(C(F)(F)F)n2-c1ccc(NC(=O)c2ccc(C#N)cc2)cc1` [Compound 77, 4-Cyano-N-[4-(2-trifluoromethyl-5-methoxy-benzoimidazol-1-yl)-phenyl]-benzamide], the IC50 (bins given in nM) lay in the range of 100 to 500 nM.
For the molecule `COc1ccc2c(c1)nc(C(F)(F)F)n2-c1ccc(NC(=O)c2ccc([N+](=O)[O-])cc2)cc1` [Compound 78, 4-Nitro-N-[4-(2-trifluoromethyl-5-methoxy-benzoimidazol-1-yl)-phenyl]-benzamide], the IC50 (bins given in nM) lay in the range of 100 to 500 nM.
As for `CCc1ccc(C(=O)Nc2ccc(-n3c(C(F)(F)F)nc4cc(OC)ccc43)cc2)cc1` [Compound 79, 4-Ethyl-N-[4-(2-trifluoromethyl-5-methoxy-benzoimidazol-1-yl)-phenyl]-benzamide], the IC50 (bins given in nM) was 100 to 500 nM.
On to `COc1ccc2c(c1)nc(C(F)(F)F)n2-c1ccc(NC(=O)c2ccc(C(F)(F)F)cc2)cc1` [Compound 80, 4-Trifluoromethyl-N-[4-(2-trifluoromethyl-5-methoxy-benzoimidazol-1-yl)-phenyl]-benzamide], for which the IC50 (bins given in nM) fell in the range of 100 to 500 nM.
`COc1ccc2c(c1)nc(C(F)(F)F)n2-c1ccc(NC(=O)c2cc([N+](=O)[O-])cc([N+](=O)[O-])c2)cc1` [Compound 81, 3,5-Dinitro-N-[4-(2-trifluoromethyl-5-methoxy-benzoimidazol-1-yl)-phenyl]-benzamide] displayed an IC50 (bins given in nM) of 100 to 500 nM.
In the case of `CCCC(=O)Nc1ccc(-n2c(C(F)(F)F)nc3cc(OC)ccc32)cc1` [Compound 82, N-[4-(2-trifluoromethyl-5-methoxy-benzoimidazol-1-yl)-phenyl]-butyramide], the IC50 (bins given in nM) fell in the range of 100 to 500 nM.
Turning to `COc1ccc2c(c1)nc(C(F)(F)F)n2-c1ccc(NC(=O)c2cccc3ccccc23)cc1` [Compound 83, Naphthalene-1-carboxylic acid {N-[4-(2-trifluoromethyl-5-methoxy-benzoimidazol-1-yl)-phenyl]} amide], under “bins given in nM”, the IC50 was 100 to 500 nM.
As to `COc1ccc2c(c1)nc(C(F)(F)F)n2-c1ccc(NC(=O)C=C(C)C)cc1` [Compound 84, 3-Methyl-N-[4-(2-trifluoromethyl-5-methoxy-benzoimidazol-1-yl)-phenyl]-but-2-enoic acid amide], where the note is “bins given in nM”, the IC50 lay in the range of 100 to 500 nM.
As for `CCCc1ccc(C(=O)Nc2ccc(-n3c(C(F)(F)F)nc4cc(OC)ccc43)cc2)cc1` [Compound 85, 4-Propyl-N-[4-(2-trifluoromethyl-5-methoxy-benzoimidazol-1-yl)-phenyl]-benzamide], where the note is “bins given in nM”, the IC50 was 100 to 500 nM.
Turning to `COc1ccc2c(c1)nc(C(F)(F)F)n2-c1ccc(NC(=O)c2cccs2)cc1` [Compound 86, Thiophene-2-carboxylic acid {N-[4-(2-trifluoromethyl-5-methoxy-benzoimidazol-1-yl)-phenyl]} amide], under “bins given in nM”, the IC50 is 100 to 500 nM.
Consider `CCCCC(CC)C(=O)Nc1ccc(-n2c(C(F)(F)F)nc3cc(OC)ccc32)cc1` (stereo not shown) [Compound 87, 2-Ethyl-N-[4-(2-trifluoromethyl-5-methoxy-benzoimidazol-1-yl)-phenyl]-hexanoic acid amide], for which the IC50 (bins given in nM) lay within 100 to 500 nM.
On the same count and under the same terms, the figure for `CCCCCCC(=O)Nc1ccc(-n2c(C(F)(F)F)nc3cc(OC)ccc32)cc1` [Compound 88, N-[4-(2-trifluoromethyl-5-methoxy-benzoimidazol-1-yl)-phenyl]-heptanoic acid amide] is 100 to 500 nM.
For the setting “bins given in nM”, `COc1cccc(C(=O)Nc2ccc(-n3c(C(F)(F)F)nc4cc(OC)ccc43)cc2)c1` [Compound 89, 3-Methoxy-N-[4-(2-trifluoromethyl-5-methoxy-benzoimidazol-1-yl)-phenyl]-benzamide] registered an IC50 of 100 to 500 nM.
Regarding `COc1ccc2c(c1)nc(C(F)(F)F)n2-c1ccc(NC(=O)C2CC2c2ccccc2)cc1` (stereo not shown) [Compound 90, 2-Phenyl-N-[4-(2-trifluoromethyl-5-methoxy-benzoimidazol-1-yl)-phenyl]-cyclopropanecarboxylic acid amide], the IC50 (bins given in nM) was in the range of 100 to 500 nM.
`COC(=O)c1ccc2c(c1)nc(C(F)(F)F)n2-c1ccc(NC(=O)c2cccc(F)c2F)cc1` [Compound 96, 2-Trifluoromethyl-1-[4-(2,3-difluoro-benzoylamimo)-phenyl]-1H-benzoimidazole-5-carboxylic acid methyl ester] yielded an IC50 (bins given in nM) of less than 100 nM.
On the same count and under the same terms, the result for `COc1ccc2c(c1)nc(C(F)(F)F)n2-c1ccc(NC(=O)c2c(F)c(F)c(F)c(F)c2F)cc1` [Compound 97, 2,3,4,5,6-Pentafluoro-N-[4-(2-trifluoromethyl-5-methoxy-benzoimidazol-1-yl)-phenyl]-benzamide] reads less than 100 nM; that for `COc1ccc2c(c1)nc(C(F)(F)F)n2-c1ccc(NC(=O)c2ccc(F)cc2F)cc1` [Compound 98, 2,4-Difluoro-N-[4-(2-trifluoromethyl-5-methoxy-benzoimidazol-1-yl)-phenyl]-benzamide], less than 100 nM.
Turning to `O=C(Nc1ccc(-n2c(C(F)(F)F)nc3cc(O)ccc32)cc1)c1cccc(F)c1F` [Compound 99, 2,3-Difluoro-N-[4-(2-trifluoromethyl-5-hydroxy-benzoimidazol-1-yl)-phenyl]-benzamide], the IC50 (bins given in nM) was less than 100 nM.
Still for that read-out and setting: the figure for `COc1ccc2c(c1)nc(C(F)(F)F)n2-c1ccc(NC(=O)c2cc(F)ccc2F)cc1` [Compound 100, 2,5-Difluoro-N-[4-(2-trifluoromethyl-5-methoxy-benzoimidazol-1-yl)-phenyl]-benzamide] is less than 100 nM; for `COc1ccc2c(c1)nc(C(F)(F)F)n2-c1ccc(NC(=O)c2cccc(C#N)c2)cc1` [Compound 101, 3-Cyano-N-[4-(2-trifluoromethyl-5-methoxy-benzoimidazol-1-yl)-phenyl]-benzamide] it is less than 100 nM.
The same measure, in the same setting: the figure for `COc1ccc2c(c1)nc(C(F)(F)F)n2-c1ccc(NC(=O)c2c(Cl)cccc2Cl)cc1` [Compound 102, 2,6-Dichloro-N-[4-(2-trifluoromethyl-5-methoxy-benzoimidazol-1-yl)-phenyl]-benzamide] is less than 100 nM; for `COc1ccc2c(c1)nc(C(F)(F)F)n2-c1ccc(NC(=O)c2ccccc2Br)cc1` [Compound 104, 2-Bromo-N-[4-(2-trifluoromethyl-5-methoxy-benzoimidazol-1-yl)-phenyl]-benzamide] it is less than 100 nM.
On the same count and under the same terms, the figure for `COc1ccc2c(c1)nc(C(F)(F)F)n2-c1ccc(NC(=O)C2CCCC2)cc1` [Compound 105, N-[4-(2-trifluoromethyl-5-methoxy-benzoimidazol-1-yl)-phenyl]-cyclopentanecarboxylic acid amide] is less than 100 nM; for `COc1ccc2c(c1)nc(C(F)(F)F)n2-c1ccc(NC(=O)C2CCCCC2)cc1` [Compound 106, N-[4-(2-trifluoromethyl-5-methoxy-benzoimidazol-1-yl)-phenyl]-cyclohexanecarboxylic acid amide] it is less than 100 nM.
